Assay [1] has as its system HCT-116 cells. In words: Inhibition of sphere-forming ability of cancer cells (Test Example 1). In kind it is cell-based. To be noted: Homo sapiens, 96 h; HCT-116 spheres, non-adherent, serum-free, 4 days, CellTiter-Glo; read-out: Sphere IC50 value (concentration for 50% inhibition of cell proliferation). How it is done:
(§1) HCT-116 cells were available from the American Type Culture Collection (ATCC). HCT-116 cells were cultured at 37° C. and 5% CO2 using the McCoy's 5a medium containing 10% fetal bovine serum (FBS) and 1% penicillin/streptomycin. […] The test compounds were added into each well to adjust the final concentration of DMSO to 0.1%, and the cells were cultured for 4 days.
For orientation: In ATP-based viability assays light output follows the ATP content of the culture.

Assay [2] concerns HCT-116 cells. In words: Test for inhibiting sphere-forming ability of cancer cells in the presence of BSA (Test Example 2). The format is cell-based. To be noted: Homo sapiens, 96 h; HCT-116 spheres, 5% bovine serum albumin (BSA), 4 days, CellTiter-Glo; read-out: Sphere IC50 value (concentration for 50% inhibition of cell proliferation). How it is done:
as §1

Consider `Cc1sc(C(=O)Nc2cn(Cc3cc(F)c(F)c(F)c3)cn2)nc1CO` [Example 47, 4-(Hydroxymethyl)-5-methyl-N-[1-(3,4,5-trifluorobenzyl)-1H-imidazol-4-yl]-1,3-thiazole-2-carboxamide], for which the results for the IC50 in the assay on HCT-116 cells [1] and in the assay on HCT-116 cells [2] were 0.669 µM and 5.46 µM, respectively.

Consider `O=C(Nc1cn(Cc2cc(F)cc(C(F)(F)F)c2)cn1)c1cnc(CO)c(C(F)F)c1` [Example 60, 5-(difluoromethyl)-N-{1-[3-fluoro-5-(trifluoromethyl)benzyl]-1H-imidazol-4-yl}-6-(hydroxymethyl)nicotinamide], for which the IC50 in the assay with HCT-116 cells [1] amounted to 0.03 µM; in the assay on HCT-116 cells [2], 0.06 µM.

For `O=C(Nc1cn(Cc2cccc(C(F)(F)F)c2)cn1)c1cnc(CO)cn1` [Example 20], the IC50 was 0.053 µM with HCT-116 cells [1] and 0.313 µM in the assay on HCT-116 cells [2].

As to `Cc1cc(C(=O)Nc2cn(Cc3cccc(C(F)(F)F)c3)cn2)cnc1CO` [Example 42, 6-(Hydroxymethyl)-5-methyl-N-{1-[3-(trifluoromethyl)benzyl]-1H-imidazol-4-yl}nicotinamide], the IC50 is less than 0.01 µM in the assay on HCT-116 cells [1] and 0.06 µM in the assay on HCT-116 cells [2].

Turning to `CC(C)(O)c1ccc(/C=C/C(=O)Nc2cn(Cc3cccc(C(F)(F)F)c3)cn2)cn1` [Example 53, (2E)-3-[6-(2-Hydroxypropan-2-yl)pyridin-3-yl]-N-{1-[3-(trifluoromethyl)benzyl]-1H-imidazol-4-yl}prop-2-enamide], the IC50 was 7.2 µM with HCT-116 cells [1] and less than 10 µM with HCT-116 cells [2].

Take `O=C(COc1ccc(CO)nc1)Nc1cn(Cc2cc(F)c(F)c(F)c2)cn1` [Example 2]: the IC50 in the assay on HCT-116 cells [1] was 0.629 µM; in the assay with HCT-116 cells [2], 0.605 µM.

For `O=C(Nc1cn(Cc2ccc(C(F)(F)F)c(F)c2)cn1)c1cnc(CO)c(C(F)F)c1` [Example 74, 5-(difluoromethyl)-N-{1-[3-fluoro-4-(trifluoromethyl)benzyl]-1H-imidazol-4-yl}-6-(hydroxymethyl)nicotinamide], the IC50 was 0.38 µM in the assay with HCT-116 cells [1] and 0.67 µM in the assay on HCT-116 cells [2].

On to `O=C(Nc1cn(Cc2cccc(C(F)(F)F)c2)cn1)c1cc(CO)on1` [Example 21], for which the IC50 with HCT-116 cells [1] was determined as 0.653 µM; with HCT-116 cells [2], 0.767 µM.

`CNCc1ccc(C(=O)Nc2cn(Cc3cccc(C(F)(F)F)c3)cn2)cn1` [Example 26, 6-[(Methylamino)methyl]-N-{1-[3-(trifluoromethyl)benzyl]-1H-imidazol-4-yl}nicotinamide]: the IC50 in the assay on HCT-116 cells [1] is 0.824 µM.

With `Cc1ccc(Cn2cnc(NC(=O)c3cnc(CO)c(C(F)F)c3)c2)cc1C(F)(F)F` [Example 70, 5-(difluoromethyl)-6-(hydroxymethyl)-N-{1-[4-methyl-3-(trifluoromethyl)benzyl]-1H-imidazol-4-yl}nicotinamide], the IC50 with HCT-116 cells [1] was less than 0.01 µM; in the assay with HCT-116 cells [2], 0.06 µM.

Take `O=C(Nc1cn(Cc2cc(F)c(F)c(F)c2)cn1)c1ccc(CCO)nc1` [Example 13]: the IC50 is 0.675 µM in the assay with HCT-116 cells [1] and 0.735 µM in the assay with HCT-116 cells [2].

For `O=C(Nc1cn(Cc2cc(F)c(F)c(F)c2)cn1)c1ccc(CO)nn1` [Example 85, 6-(Hydroxymethyl)-N-[1-(3,4,5-trifluorobenzyl)-1H-imidazol-4-yl]pyridazine-3-carboxamide], the IC50 amounted to 0.02 µM with HCT-116 cells [1] and 0.03 µM with HCT-116 cells [2].

Consider `O=C(Nc1cn(Cc2cccc(C(F)(F)F)c2)cn1)c1cnc(C(O)CO)c(F)c1` (centres unmarked) [Example 27], for which the IC50 in the assay on HCT-116 cells [1] amounted to 0.695 µM; in the assay on HCT-116 cells [2], 6.23 µM.

As to `CC(C)(O)c1ccc(C(=O)Nc2cn(Cc3cccc(C(F)(F)F)c3)cn2)cn1` [Example 5, 6-(2-Hydroxypropan-2-yl)-N-{1-[3-(trifluoromethyl)benzyl]-1H-imidazol-4-yl}nicotinamide], the IC50 in the assay on HCT-116 cells [1] is 8.4 µM.

`O=C(Nc1cn(Cc2cc(F)cc(Cl)c2)cn1)c1cnc(CO)c(C(F)F)c1` [Example 78, N-[1-(3-chloro-5-fluorobenzyl)-1H-imidazol-4-yl]-5-(difluoromethyl)-6-(hydroxymethyl)nicotinamide]: the values for the IC50 with HCT-116 cells [1] and in the assay with HCT-116 cells [2] were 0.05 µM and 0.06 µM, respectively.

For `Cc1nc(C(=O)Nc2cn(Cc3cc(F)c(F)c(F)c3)cn2)sc1CO` [Example 48, 5-(Hydroxymethyl)-4-methyl-N-[1-(3,4,5-trifluorobenzyl)-1H-imidazol-4-yl]-1,3-thiazole-2-carboxamide], the IC50 in the assay on HCT-116 cells [1] was found to be 0.095 µM; in the assay on HCT-116 cells [2] it was 0.571 µM.

For the compound `NCc1ccc(C(=O)Nc2cn(Cc3cccc(C(F)(F)F)c3)cn2)cn1` [Example 24, 6-(Aminomethyl)-N-{1-[3-(trifluoromethyl)benzyl]-1H-imidazol-4-yl}nicotinamide ditrifluoroacetate], the IC50 in the assay with HCT-116 cells [1] came to 0.061 µM; in the assay with HCT-116 cells [2], 0.696 µM.

On to `Cc1cc(CO)ncc1C(=O)Nc1cn(Cc2cccc(C(F)(F)F)c2)cn1` [Example 35], for which the IC50 in the assay with HCT-116 cells [1] came to 3.76 µM; with HCT-116 cells [2], 6.11 µM.

Consider `O=C(Nc1cn(Cc2cccc(C(F)(F)F)c2)cn1)c1ccc(CO)cn1` [Example 1, 5-(Hydroxymethyl)-N-{1-[3-(trifluoromethyl)benzyl]-1H-imidazol-4-yl}picolinamide], for which the values for the IC50 in the assay with HCT-116 cells [1] and in the assay with HCT-116 cells [2] were 0.03 µM and 0.35 µM, respectively.

In the case of `O=C(Nc1cn(Cc2cccc(Cl)c2)cn1)c1cnc(CO)c(C(F)F)c1` [Example 55, N-[1-(3-chlorobenzyl)-1H-imidazol-4-yl]-5-(difluoromethyl)-6-(hydroxymethyl)nicotinamide], the results for the IC50 with HCT-116 cells [1] and in the assay on HCT-116 cells [2] were 0.075 µM and 0.619 µM, respectively.

`CC(=O)NCc1ccc(C(=O)Nc2cn(Cc3cccc(C(F)(F)F)c3)cn2)cn1` [Example 25, 6-[(Acetylamino)methyl]-N-{1-[3-(trifluoromethyl)benzyl]-1H-imidazol-4-yl}nicotinamide]: the IC50 worked out at 4.48 µM in the assay with HCT-116 cells [1] and 4.97 µM in the assay with HCT-116 cells [2].

Turning to `O=C(Nc1cn(Cc2cccc(C(F)(F)F)c2)cn1)c1cnc(CO)c(Br)c1` [Example 32], the IC50 in the assay on HCT-116 cells [1] is less than 0.01 µM; in the assay with HCT-116 cells [2], 0.068 µM.

With `C=Cc1cc(C(=O)Nc2cn(Cc3cccc(C(F)(F)F)c3)cn2)cnc1CO` [Example 43, 5-Ethenyl-6-(hydroxymethyl)-N-{1-[3-(trifluoromethyl)benzyl]-1H-imidazol-4-yl}nicotinamide], the IC50 in the assay on HCT-116 cells [1] amounted to 5.6 µM; in the assay with HCT-116 cells [2] it was 6.51 µM.

`O=C(Nc1cn(Cc2cccc(C(F)(F)F)c2)cn1)c1cnc(CO)cc1Cl` [Example 36]: the IC50 with HCT-116 cells [1] was 0.074 µM; in the assay with HCT-116 cells [2], 0.481 µM.

As for `O=C(Nc1cn(Cc2cccc(C(F)(F)F)c2)cn1)c1cnc(CO)s1` [Example 40, 2-(Hydroxymethyl)-N-{1-[3-(trifluoromethyl)benzyl]-1H-imidazol-4-yl}-1,3-thiazole-5-carboxamide], the IC50 in the assay on HCT-116 cells [1] worked out at 0.122 µM; in the assay with HCT-116 cells [2], 0.629 µM.

On to `Cc1nc(CO)ccc1C(=O)Nc1cn(Cc2cccc(C(F)(F)F)c2)cn1` [Example 34], for which the IC50 in the assay on HCT-116 cells [1] is 7.39 µM.

On to `COc1cc(C(=O)Nc2cn(Cc3cccc(C(F)(F)F)c3)cn2)cnc1CO` [Example 33], for which, in the assay on HCT-116 cells [1], the IC50 was 9.79 µM.

On to `O=C(Nc1cn(Cc2cccc(C(F)(F)F)c2)cn1)c1ccc(/C=C/CO)nc1` [Example 14], for which, in the assay on HCT-116 cells [1], the IC50 was found to be 6.04 µM.

In the case of `COCc1ccc(C(=O)Nc2cn(Cc3cccc(C(F)(F)F)c3)cn2)cn1` [Example 9], the IC50 in the assay on HCT-116 cells [1] was 5.04 µM.

For the compound `O=C(Nc1cn(Cc2cccc(Cl)c2)cn1)c1ccc(CO)nc1` [Example 11], the IC50 with HCT-116 cells [1] was determined as 0.056 µM.
